How the values were obtained:
PMP22 mRNA = PMP22 mRNA level by RT-Q-PCR in RT4-D6P2T schwannoma cells; type: cell-based, rat; details: 8 hrs, Methimazole 0.1 nm, Pilocarpine 0.001 nm, alone or combined
Protocol: Rat schwannoma RT4-D6-P2T cell line (ATCC #CRL2468™) is defrosted in DMEM (ATCC #30-2002) and 10% FCS (invitrogen #10106). The cells are maintained at 37° C. in a humidified incubator, in an atmosphere of air (95%.)—CO2 (5%). At passage n°4, cells are dissociated by trypsinization (+1 ml of Trypsin-EDTA, 0.25%-0.53 mM; Invitrogen) 5 to 15 min at 37° C. The reaction is stopped by addition of DMEM containing 10% of foetal bovine serum (FBS). […] are counted in a Neubauer cytometer using the trypan blue exclusion test (Sigma). The suspension is triturated with a 10 ml pipette and the cells are then centrifuged at 350×g for 10 min at room temperature. […]
Quantitative RT-PCR is used to compare the levels of PMP22 mRNA after drug stimulation, relative with housekeeping RPS9 mRNA in RT4-D6P2T cell line.
8 hrs after drug incubation, cells are rinsed with cold sterilized PBS, total RNAs from each cell sample are extracted and purified from SC using the Qiagen RNeasy micro kit (Qiagen #74004). Nucleic acids are quantified by Nanodrop spectrophotometer using 1 μl of RNA sample. The RNA integrity is determined through a BioAnalyzer (Agilent) apparatus. […]
In another experiment drugs (listed in Table 1) are incubated with rat schwannoma cell line during 8 hrs and PMP22 mRNA expression level was quantified by RT-Q-PCR.

[1] = test system: CMT transgenic rat model (PMP22 transgenic rats); experiment: Electrophysiology: sensitive nerve potential amplitude (SNAP) in CMT rats; type: in vivo; details: CMT TG rats treated 20 weeks vs TG placebo
Protocol: When appropriate, the rats are subjected to electrophysiological evaluation: the sensitive nerve conduction velocity as well as latencies and potential amplitude are measured.
NCV measurement and potential acquisition (subcutaneous) were performed with the help of the chain composed of an amplificator (AM System 1700 and/or EMG-UTC), a stimulator (Havard apparatus 223) and a computer equipped with an acquisition card and a software for acquisition (SPATOL) and for the signal treatment (CALVISE).
Animals were anesthetized using ketamine/xalazine and maintained on the thermostated plate at 37° C. throughout the test (anaesthetics were supplemented as needed). Stimulating silver needle electrodes were inserted in the proximal part of the tail. The recording electrode was inserted subcutaneously through about 1 mm of skin in the distal part of the tail (4 and 6 cm from the stimulating electrode). Constant-current square-wave stimuli, […] in duration, were administered at a frequency of 0.3 per second. Responses, amplified 5.000-20.000, were visualized and collected on a computer based data acquisition system. Latencies were measured at each wave onset (defined as the first clearly identifiable deflection from the baseline). Peak to peak amplitudes of the largest deflections were calculated to determine maximum amplitude. For each recording, measurements were performed on the averaged responses to at least ten identical stimuli.
Sensory related conduction velocity (SNCV) was calculated by division of the distance between the stimulating cathodes by the difference between the correspondent latencies obtained from the two sites of stimulation.

Structure (SMILES): CC[C@@H]1C(=O)OC[C@@H]1Cc1cncn1C [pilocarpine, (3S,4R)-3-ethyl-4-[(3-methylimidazol-4-yl)methyl]oxolan-2-one]
- PMP22 mRNA level of expression (PMP22 mRNA): no significant activity
- SNAP (sensitive nerve potential amplitude), distal portion of the tail [1]: failed to reach statistical significance
- SNAP (sensitive nerve potential amplitude), distal portion of the tail ([1]; listed as compound B): approaching the nominal 5% threshold for significance

Structure (SMILES): Cn1cc[nH]c1=S [methimazole, 1-methyl-3H-imidazole-2-thione]
- PMP22 mRNA level of expression (PMP22 mRNA): no significant activity
- SNAP (sensitive nerve potential amplitude), distal portion of the tail [1]: significantly improved

Source: patent US9597297B2, “Combination of pilocarpin and methimazol for treating Charcot-Marietooth disease and related disorders” (PHARNEXT, priority 2008, dated 2017)
